{"source": "PubChem BioAssay AID2060359", "about": "(Molecular Pharmacology Branch, DTP, NCI, 2025)", "tested_on": "276233-004-R-J1-PDC spheroids with HUVEC/MSC, viability", "test": "Anticancer human tumor 276233-004-R-J1-PDC patient-derived colon adenocarcinoma cell line growth inhibition [TAK]", "conditions": "for viability, T/C: stronger effect = lower value", "procedure,_shortened": "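Spheroids of 60% malignant cells, 25% HUVEC and 15% hMSC were exposed to targeted agents combined with TAK-243 or ipatasertib. Concentrations started at or near clinical Cmax (10 microM if unknown) and descended in half-log steps.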", "note": "pIC50: −log10 of the molar value. “And” between values parts separate entries of the source, which are not always exact repeats. Equal values may be shown once.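 Further: spheroids exposed to drugs for seven days before the viability read.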", "data": [{"smiles": "COc1c(OCCCN2CCOCC2)ccc2c3n(c(=NC(=O)c4cnc(N)nc4)nc12)CCN3", "note": "+ CC(C)NCC(C(=O)N1CCN(c2ncnc3c2C(C)CC3O)CC1)c1ccc(Cl)cc1", "values": [{"measurement": "pIC50", "setting": "curve of first compound, second compound 0.3 µM", "result": 7.50}, {"measurement": "pIC50", "setting": "curve of first compound, second compound 0.949 µM", "result": 7.54}, {"measurement": "pIC50", "setting": "curve of first compound, second compound 3 µM", "result": 7.58}, {"measurement": "pIC50", "setting": "curve of first compound, second compound 9.49 µM", "result": 7.67}, {"measurement": "pIC50", "setting": "curve of first compound, second compound 30 µM", "result": "> 8.50"}, {"measurement": "viability, T/C", "setting": "second compound 0.3 µM, first compound 0.00316 µM", "result": 74.1, "unit": "%"}, {"measurement": "viability, T/C", "setting": "second compound 0.3 µM, first compound 0.01 µM", "result": 78.6, "unit": "%"}, {"measurement": "viability, T/C", "setting": "second compound 0.3 µM, first compound 0.0316 µM", "result": 49.7, "unit": "%"}, {"measurement": "viability, T/C", "setting": "second compound 0.3 µM, first compound 0.1 µM", "result": 41.8, "unit": "%"}, {"measurement": "viability, T/C", "setting": "second compound 0.3 µM, first compound 0.316 µM", "result": 43.7, "unit": "%"}, {"measurement": "viability, T/C", "setting": "second compound 0.3 µM, first compound 1 µM", "result": 52.2, "unit": "%"}, {"measurement": "viability, T/C", "setting": "second compound 0.949 µM, first compound 0.00316 µM", "result": 67, "unit": "%"}, {"measurement": "viability, T/C", "setting": "second compound 0.949 µM, first compound 0.01 µM", "result": 59.8, "unit": "%"}, {"measurement": "viability, T/C", "setting": "second compound 0.949 µM, first compound 0.0316 µM", "result": 51.5, "unit": "%"}, {"measurement": "viability, T/C", "setting": "second compound 0.949 µM, first compound 0.1 µM", "result": 36.3, "unit": "%"}, {"measurement": "viability, T/C", "setting": "second compound 0.949 µM, first compound 0.316 µM", "result": 37.6, "unit": "%"}, {"measurement": "viability, T/C", "setting": "second compound 0.949 µM, first compound 1 µM", "result": 49.3, "unit": "%"}, {"measurement": "viability, T/C", "setting": "second compound 3 µM, first compound 0.00316 µM", "result": 66.8, "unit": "%"}, {"measurement": "viability, T/C", "setting": "second compound 3 µM, first compound 0.01 µM", "result": 53.3, "unit": "%"}, {"measurement": "viability, T/C", "setting": "second compound 3 µM, first compound 0.0316 µM", "result": 46.8, "unit": "%"}, {"measurement": "viability, T/C", "setting": "second compound 3 µM, first compound 0.1 µM", "result": 46, "unit": "%"}, {"measurement": "viability, T/C", "setting": "second compound 3 µM, first compound 0.316 µM", "result": 41.5, "unit": "%"}, {"measurement": "viability, T/C", "setting": "second compound 3 µM, first compound 1 µM", "result": 61.7, "unit": "%"}, {"measurement": "viability, T/C", "setting": "second compound 9.49 µM, first compound 0.00316 µM", "result": 60.5, "unit": "%"}, {"measurement": "viability, T/C", "setting": "second compound 9.49 µM, first compound 0.01 µM", "result": 48.3, "unit": "%"}, {"measurement": "viability, T/C", "setting": "second compound 9.49 µM, first compound 0.0316 µM", "result": 52.5, "unit": "%"}, {"measurement": "viability, T/C", "setting": "second compound 9.49 µM, first compound 0.1 µM", "result": 43, "unit": "%"}, {"measurement": "viability, T/C", "setting": "second compound 9.49 µM, first compound 0.316 µM", "result": 44, "unit": "%"}, {"measurement": "viability, T/C", "setting": "second compound 9.49 µM, first compound 1 µM", "result": 38.4, "unit": "%"}, {"measurement": "viability, T/C", "setting": "second compound 30 µM, first compound 0.00316 µM", "result": 34, "unit": "%"}, {"measurement": "viability, T/C", "setting": "second compound 30 µM, first compound 0.01 µM", "result": 34.5, "unit": "%"}, {"measurement": "viability, T/C", "setting": "second compound 30 µM, first compound 0.0316 µM", "result": 33.2, "unit": "%"}, {"measurement": "viability, T/C", "setting": "second compound 30 µM, first compound 0.1 µM", "result": 32.9, "unit": "%"}, {"measurement": "viability, T/C", "setting": "second compound 30 µM, first compound 0.316 µM", "result": 25.9, "unit": "%"}, {"measurement": "viability, T/C", "setting": "second compound 30 µM, first compound 1 µM", "result": 41.5, "unit": "%"}]}, {"smiles": "CC(C)CC(NC(=O)C(Cc1ccccc1)NC(=O)c1cnccn1)B(O)O", "note": "(configuration not stated)", "values": [{"measurement": "viability, T/C", "setting": "compound 31.6 pM", "result": "107% and 98.8%"}, {"measurement": "viability, T/C", "setting": "compound 0.0001 µM", "result": "88.1% and 105%"}, {"measurement": "viability, T/C", "setting": "compound 0.000316 µM", "result": "97.6% and 93.5%"}, {"measurement": "viability, T/C", "setting": "compound 0.001 µM", "result": "91.4% and 106%"}, {"measurement": "viability, T/C", "setting": "compound 0.00316 µM", "result": "89.8% and 112%"}, {"measurement": "viability, T/C", "setting": "compound 0.01 µM", "result": "12.6% and 10%"}, {"measurement": "pIC50", "setting": "curve of compound", "result": "8.24 and 8.21"}]}]}
